Source: a melting point compilation (Tetko et al.)
Peptide text beside a SMILES is read from it.

Row | melting point [°C] | Structure (SMILES)
1 | 70 | CCOC(=O)c1nc2ccccc2s1
2 | 130 to 137 | Cc1ccc(-n2c(=O)cc(C)n2C)cc1
3 | 87 to 89 | N#CCS(=O)(=O)c1ccc(F)cc1
4 | 341 | O=C1c2ccccc2C(=O)c2c1ccc([N+](=O)[O-])c2[N+](=O)[O-]
5 | 102 | N#Cc1c(F)cc(Cl)cc1F
6 | -30 | Cc1ccccc1CN
7 | -43.1 | CCC=Cc1ccccc1
8 | 38 | O=S(=O)(Cl)c1cc(Cl)ccc1Cl
9 | 84 | Oc1ccc2ccccc2c1Br
10 | 205 | NC(=O)N1c2ccccc2CCc2ccccc21
11 | 194 | CCOc1ccc(-c2nnc3n2NC(c2ccccc2OC)S3)cc1 (stereo unspecified)
12 | 64 | Cc1ccc(CO)cc1C
13 | 147 | O=[N+]([O-])C(Br)C(Br)c1cccc(C(Br)C(Br)[N+](=O)[O-])c1 (stereo unspecified)
14 | 124 to 126 | COC(=O)c1scc(S(C)(=O)=O)c1-n1cccc1
15 | 79 to 81 | O=C(O)Cc1ccc(Oc2ccccc2)cc1
16 | 193 | O=C(C1=NOC2C(=O)N(c3ccc(F)cc3)C(=O)C12)c1ccc2ccccc2c1 (stereo unspecified)
17 | -26 | c1ccc(CNCc2ccccc2)cc1
18 | 136 to 137 | O=C(O)CCOc1ccc(Cl)cc1
19 | 78 | CCN(CC)c1cccc(O)c1
20 | 219 | CC(=O)Nc1ccc2c(OC(C)=O)c(-c3ccccc3)[nH]c2c1
21 | 47 | N#Cc1ccc(C(F)(F)F)c(F)c1

Row | melting point [°C] | Structure (SMILES)
22 | 81 | Nc1ccccc1-c1ccccc1N
23 | 58 to 60 | O=[N+]([O-])c1cccc(N=C=S)c1
24 | 181 | Nc1ccc(S(=O)(=O)Nc2ccnn2-c2ccccc2)cc1
25 | 58 to 60 | COc1cccc(O)c1C(C)=O
26 | 334 | O=[N+]([O-])c1ccc2c(c1)Cc1cc([N+](=O)[O-])ccc1-2
27 | 39.5 | CC(C)COC(=O)C(C)Oc1ccc(Oc2ccc(Cl)cc2)cc1 (stereo unspecified)
28 | 198 | CC(C)S(=O)(=O)n1c(N)nc2ccc(C(=NO)c3ccccc3)cc21
29 | 67 to 69 | Nc1ccc(Cn2cccn2)cc1
30 | 217 | CCOC(=O)C1=C(C)NC(=O)NC1c1ccccc1Cl (stereo unspecified)
31 | 195 to 199 | O=C(O)C=Cc1cc(Br)ccc1F
32 | 38 | O=C(Cl)C=Cc1ccccc1Cl
33 | 56 to 59 | Cc1nnc(-c2cccc(S(=O)(=O)Cl)c2)o1
34 | 274 to 275 | O=C(O)c1cc2cc([N+](=O)[O-])ccc2o1
35 | 88 to 90 | COC1=C(OC)C(C(O)COS(=O)(=O)c2ccc(C)cc2)OC1=O (stereo unspecified)
36 | 138 to 142 | Cc1cccc(C(=O)NCC(=O)O)c1
37 | 81 to 86 | C/C=C/c1ccccc1C(=O)O
38 | 58 to 60 | Cc1ccc(-c2ccccc2)cc1N
39 | 59.5 | Cc1ccc(C(=O)c2ccccc2)cc1
40 | 179 to 181 | CC(Nc1ccc(Br)cn1)=C(C#N)C(=O)c1ccccc1
41 | 176 | N#Cc1ccc(N)c2ccccc12

More lines, now with the values behind:

Row | Structure (SMILES) | melting point [°C]
42 | COCCCNc1nc(NCCCOC)nc(SC)n1 | 55
43 | CC1(C)OC(C)(C(O)(c2ccccc2)c2ccccc2)CCC1C(=O)O (stereo unspecified) | 163
44 | Cc1nc(-c2cccc(Br)c2)no1 | 81 to 83
45 | CC12CCC(C(=CCC=C3C(=O)C4(C)CCC3C4(C)C)C1=O)C2(C)C | 265 to 267
46 | CC(C)(C)N(NC(=O)c1ccc(Cl)cc1)C(=O)c1ccccc1 | 200
47 | Nc1ncc(Cl)cn1 | 235
48 | CN1CCCN(C)C1=O | -20
49 | C[Si](C)(Oc1ccccc1)Oc1ccccc1 | -23
50 | Cc1csc(N)c1C(N)=O | 174
51 | C[Si](C)(C)C#Cc1ccccn1 | 42 to 45
52 | FC(F)(F)C(F)(F)C(F)(F)C(F)(F)OC(F)(F)C(F)(F)C(F)(F)C(F)(F)F | -100
53 | C1CC2CC1C1OC21 (stereo unspecified) | 123
54 | C#CC1(O)CCC2C3CCC4=CC(=O)CCC4C3CCC21CC (stereo unspecified) | 240
55 | NC(=O)c1ncccc1O | 195
56 | CC(C)(C)OC(=O)N1CCN(CCO)CC1 | 39 to 43
57 | CCCC(=O)Nc1ccc(OCC(O)CNC(C)C)c(C(C)=O)c1 (stereo unspecified) | 119
58 | O=C(O)C1OC(C(=O)O)C(C(=O)O)C1C(=O)O (stereo unspecified) | 205 to 210
59 | Oc1cc(C(F)(F)F)nc2c(Cl)cccc12 | 139
60 | Cc1ccc(/N=N/c2c(N)nn3c(C)cc(=O)[nH]c23)cc1 | 285
61 | CCOC(=O)NC(=S)Nc1sc2c(c1C(=O)OCC)CCN(Cc1ccccc1)C2 | 206
62 | Cc1cc(C(=O)O)n(C)n1 | 209 to 211
63 | C1CSCS1 | -50
64 | CON=O | -16

Row | Structure (SMILES) | melting point [°C]
65 | N[C@@H](CC(=O)O)C(=O)N[C@@H](Cc1ccccc1)C(=O)O (H-Asp-Phe-OH) | 236 to 239
66 | O=Nc1ccc(Nc2ccccc2)cc1 | 143
67 | CCOC(=O)C(O)c1ccccc1 (racemic) | 37
68 | CS(=O)(=O)OCCCNCCCOS(C)(=O)=O | 116
69 | C1COCCOCCOCCOCCOCCN1 | 48
70 | CCC(=O)Nc1nc(C)c(Cl)s1 | 159
71 | C=C(C)c1cc(=O)c(O)ccc1CC=C(C)C | 71.5
72 | Clc1nccc2sccc12 | 99
73 | CN(C)c1ccc(C(=O)C(=O)c2ccc(N(C)C)cc2)cc1 | 202
74 | CC(C)C(O)C1(C)CCC(C(=O)O)C(C)(C)O1 (stereo unspecified) | 115
75 | OCc1cn2ccsc2n1 | 154 to 155
76 | O=CC(Cl)C=O | 140 to 145
77 | Nc1c(I)cc([N+](=O)[O-])cc1I | 251 to 256
78 | C=CC=c1c(=CC)c(O)c(C2=NNC(=O)C2=CNc2ccncc2)c(=O)n1C | 238
79 | CCOC(=O)c1c(C)[nH]c(=O)[nH]c1=S | 150
80 | BrCCOc1ccccc1 | 39
81 | [O-][P+](c1ccccc1)(c1ccccc1)C1C=C(c2ccccc2)OC(c2ccccc2)=C1 | 176
82 | NCCCNC1CCCCC1 | -18
83 | COc1ccc2cc(C(=O)c3ccccc3)c(=O)oc2c1 | 150 to 153
84 | O=C(O)CCCCc1cccs1 | 41
85 | CC(C)(C)c1ncc(C(=O)Nc2cc(C(F)(F)F)cc(C(F)(F)F)c2)nc1Cl | 99
86 | C=C(CC(=O)O)C(=O)O | 175
87 | O=Cc1cc(F)c(F)c(F)c1 | 25.3

Row | Structure (SMILES) | melting point [°C]
88 | COC(=O)c1ccc(C(=O)OC)c(C(=O)OC)c1 | 39
89 | Cc1ccncc1/C=C/C(=O)O | 137
90 | NN1CCN(CCO)CC1 | 102 to 107
91 | CCCCCCCCCCCCCc1ccccc1 | 10
92 | Cc1ccc2[nH]c(C)c(C)c2c1 | 122
93 | BrCc1ccccc1I | 56
94 | CC(C)(C)c1ncc(C(=O)Nc2cccc(Br)c2)nc1Cl | 105
95 | Cc1c(O)cccc1C(=O)O | 144
96 | Clc1cc(Cl)c2c(c1Cl)Oc1c(Cl)cc(Cl)c(Cl)c1O2 | 238
97 | CC(C)(C)c1ccc(-c2nnc(-c3ccc(-c4ccccc4)cc3)o2)cc1 | 137
98 | CCCCC(CC)COP(=O)(Oc1ccccc1)Oc1ccccc1 (stereo unspecified) | -54
99 | COC(=O)c1ccc(C(=O)OC)c(I)c1 | 81 to 82
100 | O=C(Nc1cccc(Cl)c1)Nc1nnc(-c2ccc(Cl)cc2)o1 | 246 to 247
101 | CCC(C)(N)P(=O)(O)O (stereo unspecified) | 268 to 272
102 | ClC#CCl | -66
103 | COc1ccc(-n2nc(C(=O)c3cccs3)sc2=N)cc1 | 164
104 | O=C(Cl)c1csc(-c2ccc3c(c2)CCO3)n1 | 133 to 135
105 | NC(=O)Cc1nc(-c2ccccc2)cs1 | 193 to 194
106 | S=C(Oc1ccccn1)Oc1ccccn1 | 96 to 99
107 | CCC=C(C)C | -135
108 | COc1ccc(NC(=S)c2cc(C(C)(C)C)c(O)c(C(C)(C)C)c2)cc1 | 128 to 129
109 | c1ccc(C2CCNCC2)cc1 | 60.5
110 | CCOc1ccc(OCC)c(N)c1 | 85

Row | Structure (SMILES) | melting point [°C]
111 | c1csc(NC2=NCCN2)n1 | 240 to 242
112 | CC(C)NCC(O)COc1ccc(CCOCC2CC2)cc1 (stereo unspecified) | 71
113 | CCCCCCCCCCC(C)C | -26
114 | O=C(Cl)c1cccnc1Oc1ccccc1 | 90 to 91
115 | Cc1nc(-c2ccc3c(c2)CCO3)sc1C(=O)Cl | 150 to 154
116 | COC(=O)C1Cc2c([nH]c3ccccc23)C(C)(C)N1 (stereo unspecified) | 202 to 204
117 | COc1cc(C(=O)OCc2cccc(COC(=O)c3cc(OC)c(OC)c(OC)c3)n2)cc(OC)c1OC | 119
118 | Oc1ccc(-c2nnc3n2NC(c2ccccc2O)S3)cc1 (stereo unspecified) | 241
119 | O=C1C2=C(NC1C(=O)c1ccc(Br)cc1)Oc1c(c(=O)oc3ccccc13)C2c1ccc(Br)cc1 (stereo unspecified) | 230
120 | O=[N+]([O-])OC1COC2C(O)COC12 (stereo unspecified) | 88 to 93
121 | COc1ccn(C)c(=O)c1C#N | 202
122 | CSc1nc(=O)n(CCO)c2c1CCC2 | 193 to 195
123 | CCCCCCCCCCCCC#CC#CCO | 57 to 59
124 | CC1(O)CC(c2ccccc2)C([N+](=O)[O-])C(c2ccccc2N)O1 (stereo unspecified) | 148
125 | O=C(O)C1C2CCC(C2)C1C(=O)c1ccccc1 (stereo unspecified) | 180 to 183
126 | C=CC=CC(=O)O | 79
127 | CC(=O)NCCNC(C)=O | 174
128 | COc1ccc2c(=O)cc(-c3ccccc3)oc2c1 | 110
129 | Cc1cc(C(=O)Nc2ccccc2)no1 | 136 to 139
130 | Cc1cccc2sc3nncn3c12 | 187
131 | OCc1ccc(N2CCCC2)nc1 | 61 to 62
